# Source: publication PMC3694096, “Development of Novel In Vivo Chemical Probes to Address CNS Protein Kinase Involvement in Synaptic Dysfunction” (PLoS ONE, 2013)
# pIC50: −log10 of the molar value. Like-named read-outs stand apart in the source and are kept apart here.
# How the values were obtained:
# >290 mammalian kinases = assay: Hierarchal large-scale kinome screen, overall outcome; format: biochemical; details: overall outcome in words
# cKit(V654A) = biological target: T1, cKit(V654A) (Homo sapiens, UniProt P10721, V654A); assay: Kinome profiler screen; format: biochemical; details: at 20,000 nM inhibitor; kinase activity remaining
# T1 construct: purchased Millipore KinaseProfiler
# PIP4K2α = biological target: T2, PIP4K2α (Homo sapiens, UniProt P48426); assay: Kinome profiler screen; format: biochemical; details: at 20,000 nM inhibitor; kinase activity remaining
# T2 construct: purchased Millipore KinaseProfiler
# BrSK1 = biological target: T3, BrSK1 (Homo sapiens, UniProt Q8TDC3); assay: Kinome profiler screen; format: biochemical
# T3 construct: purchased Millipore KinaseProfiler
# EphA5 = biological target: T4, EphA5 (Homo sapiens, UniProt P54756); assay: Kinome profiler screen; format: biochemical; details: at 20,000 nM inhibitor; kinase activity remaining
# T4 construct: purchased Millipore KinaseProfiler
# JAK2 = biological target: T5, JAK2 (Homo sapiens, UniProt O60674); assay: Kinome profiler screen; format: biochemical; details: at 20,000 nM inhibitor; kinase activity remaining
# T5 construct: purchased Millipore KinaseProfiler
# MKK4(m) = biological target: T6, MKK4(m) (Mus musculus, UniProt P47809); assay: Kinome profiler screen; format: biochemical; details: at 20,000 nM inhibitor; kinase activity remaining
# T6 construct: purchased Millipore KinaseProfiler
# Hck activated = biological target: T7, Hck activated (Homo sapiens, UniProt P08631); assay: Kinome profiler screen; format: biochemical; details: at 20,000 nM inhibitor; kinase activity remaining
# T7 construct: purchased Millipore KinaseProfiler
# ALK4 = biological target: T8, ALK4 (Homo sapiens, UniProt P36896); assay: Kinome profiler screen; format: biochemical; details: at 20,000 nM inhibitor; kinase activity remaining
# T8 construct: purchased Millipore KinaseProfiler
# NEK6 = biological target: T9, NEK6 (Homo sapiens, UniProt Q9HC98); assay: Kinome profiler screen; format: biochemical; details: at 20,000 nM inhibitor; kinase activity remaining
# T9 construct: purchased Millipore KinaseProfiler
# ROCK-II(r) = biological target: T10, ROCK-II(r) (Rattus norvegicus, UniProt Q62868); assay: Kinome profiler screen; format: biochemical; details: at 20,000 nM inhibitor; kinase activity remaining
# T10 construct: purchased Millipore KinaseProfiler
# PKCζ = biological target: T11, PKCζ (Homo sapiens, UniProt Q05513); assay: Kinome profiler screen; format: biochemical; details: at 20,000 nM inhibitor; kinase activity remaining
# T11 construct: purchased Millipore KinaseProfiler
# Snk = biological target: T12, Snk (Homo sapiens, UniProt Q9NYY3); assay: Kinome profiler screen; format: biochemical; details: at 20,000 nM inhibitor; kinase activity remaining
# T12 construct: purchased Millipore KinaseProfiler
# Itk = biological target: T13, Itk (Homo sapiens, UniProt Q08881); assay: Kinome profiler screen; format: biochemical; details: at 20,000 nM inhibitor; kinase activity remaining
# T13 construct: purchased Millipore KinaseProfiler
# SRPK1 = biological target: T14, SRPK1 (Homo sapiens, UniProt Q96SB4); assay: Kinome profiler screen; format: biochemical
# T14 construct: purchased Millipore KinaseProfiler
# Txk = biological target: T15, Txk (Homo sapiens, UniProt P42681); assay: Kinome profiler screen; format: biochemical; details: at 20,000 nM inhibitor; kinase activity remaining
# T15 construct: purchased Millipore KinaseProfiler
# NEK7 = biological target: T16, NEK7 (Homo sapiens, UniProt Q8TDX7); assay: Kinome profiler screen; format: biochemical; details: at 20,000 nM inhibitor; kinase activity remaining
# T16 construct: purchased Millipore KinaseProfiler
# MAPKAP-K3 = biological target: T17, MAPKAP-K3 (Homo sapiens, UniProt Q16644); assay: Kinome profiler screen; format: biochemical; details: at 20,000 nM inhibitor; kinase activity remaining
# T17 construct: purchased Millipore KinaseProfiler
# CK1γ1 = biological target: T18, CK1γ1 (Homo sapiens, UniProt Q9HCP0); assay: Kinome profiler screen; format: biochemical; details: at 20,000 nM inhibitor; kinase activity remaining
# T18 construct: purchased Millipore KinaseProfiler
# EphB4 = biological target: T19, EphB4 (Homo sapiens, UniProt P54760); assay: Kinome profiler screen; format: biochemical; details: at 20,000 nM inhibitor; kinase activity remaining
# T19 construct: purchased Millipore KinaseProfiler
# CK2 = biological target: T20, CK2 (Homo sapiens, UniProt P68400); assay: Kinome profiler screen; format: biochemical; details: at 20,000 nM inhibitor; kinase activity remaining
# T20 construct: purchased Millipore KinaseProfiler
# ErbB4 = biological target: T21, ErbB4 (Homo sapiens, UniProt Q15303); assay: Kinome profiler screen; format: biochemical; details: at 20,000 nM inhibitor; kinase activity remaining
# T21 construct: purchased Millipore KinaseProfiler
# PI3 Kinase (p110β/p85α) = biological target: T22, PI3 Kinase (p110β/p85α) (Homo sapiens, UniProt P42338); assay: Kinome profiler screen; format: biochemical; details: at 20,000 nM inhibitor; kinase activity remaining
# T22 construct: purchased Millipore KinaseProfiler
# MRCKα = biological target: T23, MRCKα (Homo sapiens, UniProt Q5VT25); assay: Kinome profiler screen; format: biochemical; details: at 20,000 nM inhibitor; kinase activity remaining
# T23 construct: purchased Millipore KinaseProfiler
# IGF-1R = biological target: T24, IGF-1R (Homo sapiens, UniProt P08069); assay: Kinome profiler screen; format: biochemical; details: at 20,000 nM inhibitor; kinase activity remaining
# T24 construct: purchased Millipore KinaseProfiler
# Pim-3 = biological target: T25, Pim-3 (Homo sapiens, UniProt Q86V86); assay: Kinome profiler screen; format: biochemical; details: at 20,000 nM inhibitor; kinase activity remaining
# T25 construct: purchased Millipore KinaseProfiler
# [1] = system: contextual and cued learning; assay: Fear conditioning, Aβ42-infused mice; format: in vivo, C57BL/6J mice; details: for cued learning: 24 hrs after contextual learning, control test; for contextual fear memory deficit: Aβ42-infused mice
# Axl = biological target: T26, Axl (Homo sapiens, UniProt P30530); assay: Kinome profiler screen; format: biochemical; details: at 20,000 nM inhibitor; kinase activity remaining
# T26 construct: purchased Millipore KinaseProfiler
# Flt3 = biological target: T27, Flt3 (Homo sapiens, UniProt P36888); assay: Kinome profiler screen; format: biochemical; details: at 20,000 nM inhibitor; kinase activity remaining
# T27 construct: purchased Millipore KinaseProfiler
# NEK2 = biological target: T28, NEK2 (Homo sapiens, UniProt P51955); assay: Kinome profiler screen; format: biochemical; details: at 20,000 nM inhibitor; kinase activity remaining
# T28 construct: purchased Millipore KinaseProfiler
# EphA7 = biological target: T29, EphA7 (Homo sapiens, UniProt Q15375); assay: Kinome profiler screen; format: biochemical; details: for activity at 20 µM: at 20,000 nM inhibitor, kinase activity remaining
# T29 construct: purchased Millipore
# Chemical stability = format: physicochemical
# Protocol: Aqueous solubility (logS) and chemical stability were determined as previously described. Briefly, solutions for aqueous solubility (log S) determination were made by gravimetric methods using a Sartorius AG (Germany) BP 211 D analytical balance. Dry borosilicate capillary tubes (Büchi, Switzerland) were weighed and various amounts of compound (ranging from 1.2–1.5 mg) or the hydrochloride hydrate form (ranging from 10–20 mg) were added to the tared tubes, then water added to create solutions ranging in concentrations from […]. Tubes containing the samples were mixed to ensure wetting and incubated at 37°C for 24 h. Aliquots were collected from each tube, centrifuged at 12,000 g-min, and analyzed by HPLC. Concentrations were calculated using area under the peak (260 nm) at the appropriate retention time relative to a standard curve obtained from serial dilutions of each purified compound. […]. The co-solvent was methanol, experimental pH range was 1.7–10.0, temperature was 22±2°C, ionic strength was 0.15 M KCl. Five titrations were used to calculate the pKa using the Yasuda-Shedlovsky technique. […].
# [2] = biological target: T30, PI3 Kinase (p110α (E545K)/p85α)(m) (Mus musculus, UniProt P42337, E545K); assay: Kinome profiler screen; format: biochemical; details: at 20,000 nM inhibitor; kinase activity remaining
# T30 construct: purchased Millipore KinaseProfiler
# Src(1-530) = biological target: T31, Src(1-530) (Homo sapiens, UniProt P12931); assay: Kinome profiler screen; format: biochemical; details: at 20,000 nM inhibitor; kinase activity remaining
# T31 construct: purchased Millipore KinaseProfiler
# MST1 = biological target: T32, MST1 (Homo sapiens, UniProt Q13043); assay: Kinome profiler screen; format: biochemical; details: at 20,000 nM inhibitor; kinase activity remaining
# T32 construct: purchased Millipore KinaseProfiler
# GCK = biological target: T33, GCK (Homo sapiens, UniProt Q12851); assay: Kinome profiler screen; format: biochemical; details: at 20,000 nM inhibitor; kinase activity remaining
# T33 construct: purchased Millipore KinaseProfiler
# TAO3 = biological target: T34, TAO3 (Homo sapiens, UniProt Q9H2K8); assay: Kinome profiler screen; format: biochemical; details: at 20,000 nM inhibitor; kinase activity remaining
# T34 construct: purchased Millipore KinaseProfiler
# [3] = at 20,000 nM inhibitor, kinase activity remaining, read-out: % Activity
# T29 sequence (Q15375 28-998): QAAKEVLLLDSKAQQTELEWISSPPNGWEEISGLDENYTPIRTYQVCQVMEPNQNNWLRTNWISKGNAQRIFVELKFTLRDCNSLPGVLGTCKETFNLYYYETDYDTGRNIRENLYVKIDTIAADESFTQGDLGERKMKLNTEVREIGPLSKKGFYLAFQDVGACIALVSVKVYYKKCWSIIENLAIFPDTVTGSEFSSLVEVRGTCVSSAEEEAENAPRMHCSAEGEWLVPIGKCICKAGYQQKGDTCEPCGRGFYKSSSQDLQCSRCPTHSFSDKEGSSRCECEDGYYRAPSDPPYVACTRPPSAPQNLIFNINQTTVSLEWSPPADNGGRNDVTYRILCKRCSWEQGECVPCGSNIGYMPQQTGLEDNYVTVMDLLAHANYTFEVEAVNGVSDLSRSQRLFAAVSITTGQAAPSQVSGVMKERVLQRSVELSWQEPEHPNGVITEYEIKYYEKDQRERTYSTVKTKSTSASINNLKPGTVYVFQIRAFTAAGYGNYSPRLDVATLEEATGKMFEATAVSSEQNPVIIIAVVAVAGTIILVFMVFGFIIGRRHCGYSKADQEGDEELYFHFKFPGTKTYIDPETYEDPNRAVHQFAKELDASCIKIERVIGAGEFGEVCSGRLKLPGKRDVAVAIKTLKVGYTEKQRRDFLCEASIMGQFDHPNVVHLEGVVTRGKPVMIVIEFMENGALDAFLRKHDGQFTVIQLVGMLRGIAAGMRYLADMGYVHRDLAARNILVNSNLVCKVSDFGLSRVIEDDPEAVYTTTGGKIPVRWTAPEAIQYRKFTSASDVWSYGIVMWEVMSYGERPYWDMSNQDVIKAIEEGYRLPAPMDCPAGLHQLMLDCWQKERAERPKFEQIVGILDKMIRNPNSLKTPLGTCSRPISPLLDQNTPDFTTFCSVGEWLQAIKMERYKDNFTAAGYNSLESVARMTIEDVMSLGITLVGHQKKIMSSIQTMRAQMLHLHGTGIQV
# T30 sequence (P42337 whole entry E545K): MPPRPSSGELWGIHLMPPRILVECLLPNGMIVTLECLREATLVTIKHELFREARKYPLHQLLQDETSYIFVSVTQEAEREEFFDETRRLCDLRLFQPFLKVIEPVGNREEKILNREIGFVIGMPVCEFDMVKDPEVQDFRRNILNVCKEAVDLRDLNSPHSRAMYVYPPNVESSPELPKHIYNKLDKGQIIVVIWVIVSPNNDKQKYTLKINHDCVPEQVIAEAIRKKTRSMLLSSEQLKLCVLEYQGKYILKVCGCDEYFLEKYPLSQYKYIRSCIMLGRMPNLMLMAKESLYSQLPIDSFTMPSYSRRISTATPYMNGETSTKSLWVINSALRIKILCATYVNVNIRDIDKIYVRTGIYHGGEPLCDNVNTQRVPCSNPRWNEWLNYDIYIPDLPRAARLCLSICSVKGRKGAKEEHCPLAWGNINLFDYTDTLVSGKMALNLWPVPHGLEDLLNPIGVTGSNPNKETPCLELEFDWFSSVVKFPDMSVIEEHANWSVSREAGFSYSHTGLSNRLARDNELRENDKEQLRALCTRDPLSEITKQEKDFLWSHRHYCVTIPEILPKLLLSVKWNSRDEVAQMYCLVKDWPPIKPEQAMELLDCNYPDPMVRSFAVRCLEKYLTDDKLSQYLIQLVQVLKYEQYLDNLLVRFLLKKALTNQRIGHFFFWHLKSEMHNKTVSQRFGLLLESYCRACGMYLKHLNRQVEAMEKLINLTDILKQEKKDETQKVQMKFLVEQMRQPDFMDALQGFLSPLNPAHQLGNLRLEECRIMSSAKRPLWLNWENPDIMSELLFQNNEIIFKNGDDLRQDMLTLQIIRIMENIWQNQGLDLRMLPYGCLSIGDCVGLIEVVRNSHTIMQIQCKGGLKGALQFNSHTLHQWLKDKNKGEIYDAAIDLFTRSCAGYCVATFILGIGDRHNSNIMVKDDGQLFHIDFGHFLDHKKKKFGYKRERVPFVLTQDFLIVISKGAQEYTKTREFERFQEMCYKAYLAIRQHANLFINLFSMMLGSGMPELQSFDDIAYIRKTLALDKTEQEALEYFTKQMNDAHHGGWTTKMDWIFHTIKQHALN
# T30 sequence (P26450 2-724 partner): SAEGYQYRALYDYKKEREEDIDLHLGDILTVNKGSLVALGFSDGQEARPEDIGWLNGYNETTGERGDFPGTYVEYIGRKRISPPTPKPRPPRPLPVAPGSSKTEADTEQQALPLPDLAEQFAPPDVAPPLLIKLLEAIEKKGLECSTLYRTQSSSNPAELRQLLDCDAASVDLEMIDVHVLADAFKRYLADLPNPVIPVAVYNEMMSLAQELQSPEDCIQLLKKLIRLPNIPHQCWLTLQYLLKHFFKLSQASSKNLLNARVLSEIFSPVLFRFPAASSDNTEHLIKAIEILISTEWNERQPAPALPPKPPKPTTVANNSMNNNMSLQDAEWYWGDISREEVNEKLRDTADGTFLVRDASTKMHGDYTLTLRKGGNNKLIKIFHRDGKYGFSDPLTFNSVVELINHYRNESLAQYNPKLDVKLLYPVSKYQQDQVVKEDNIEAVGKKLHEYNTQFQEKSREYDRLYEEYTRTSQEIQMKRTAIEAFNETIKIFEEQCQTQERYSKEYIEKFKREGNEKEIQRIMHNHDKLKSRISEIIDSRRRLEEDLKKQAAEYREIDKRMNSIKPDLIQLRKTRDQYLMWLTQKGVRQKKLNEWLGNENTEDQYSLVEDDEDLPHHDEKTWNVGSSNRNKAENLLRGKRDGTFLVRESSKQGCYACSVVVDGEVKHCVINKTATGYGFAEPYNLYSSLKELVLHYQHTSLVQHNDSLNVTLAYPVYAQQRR
# T24 sequence (P08069 31-1367): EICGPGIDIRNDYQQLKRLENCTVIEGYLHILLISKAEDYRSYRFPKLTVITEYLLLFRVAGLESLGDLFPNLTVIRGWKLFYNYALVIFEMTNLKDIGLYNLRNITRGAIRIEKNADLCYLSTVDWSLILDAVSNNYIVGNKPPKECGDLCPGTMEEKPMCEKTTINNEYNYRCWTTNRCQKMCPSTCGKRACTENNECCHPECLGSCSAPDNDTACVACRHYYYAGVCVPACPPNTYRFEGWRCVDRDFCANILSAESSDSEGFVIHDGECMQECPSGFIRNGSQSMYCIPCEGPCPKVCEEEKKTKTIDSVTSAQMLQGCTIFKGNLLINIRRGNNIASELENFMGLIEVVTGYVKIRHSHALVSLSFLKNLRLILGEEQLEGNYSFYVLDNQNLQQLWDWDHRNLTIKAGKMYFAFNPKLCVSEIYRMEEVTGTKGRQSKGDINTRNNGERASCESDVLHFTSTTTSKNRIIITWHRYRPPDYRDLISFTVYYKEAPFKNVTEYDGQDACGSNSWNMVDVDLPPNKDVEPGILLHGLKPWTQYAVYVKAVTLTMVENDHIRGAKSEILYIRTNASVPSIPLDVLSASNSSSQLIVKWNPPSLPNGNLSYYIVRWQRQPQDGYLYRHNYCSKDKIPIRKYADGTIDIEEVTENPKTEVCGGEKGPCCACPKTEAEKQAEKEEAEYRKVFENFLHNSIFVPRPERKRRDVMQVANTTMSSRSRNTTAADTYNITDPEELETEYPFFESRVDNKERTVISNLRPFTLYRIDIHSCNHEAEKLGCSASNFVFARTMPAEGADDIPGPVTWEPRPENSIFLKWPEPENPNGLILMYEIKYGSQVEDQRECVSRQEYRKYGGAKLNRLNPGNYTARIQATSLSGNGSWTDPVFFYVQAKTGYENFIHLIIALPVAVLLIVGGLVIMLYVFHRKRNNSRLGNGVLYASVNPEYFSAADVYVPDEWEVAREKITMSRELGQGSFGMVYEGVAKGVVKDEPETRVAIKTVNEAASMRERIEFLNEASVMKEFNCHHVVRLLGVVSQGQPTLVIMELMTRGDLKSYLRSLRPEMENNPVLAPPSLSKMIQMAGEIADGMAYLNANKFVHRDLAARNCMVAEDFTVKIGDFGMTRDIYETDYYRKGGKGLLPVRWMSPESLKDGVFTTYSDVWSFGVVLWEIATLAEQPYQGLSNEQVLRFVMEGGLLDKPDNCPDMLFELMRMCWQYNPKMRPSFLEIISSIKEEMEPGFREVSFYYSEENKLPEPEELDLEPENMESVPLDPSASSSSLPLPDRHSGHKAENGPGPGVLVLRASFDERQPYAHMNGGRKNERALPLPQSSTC
# T33 sequence (Q12851 whole entry): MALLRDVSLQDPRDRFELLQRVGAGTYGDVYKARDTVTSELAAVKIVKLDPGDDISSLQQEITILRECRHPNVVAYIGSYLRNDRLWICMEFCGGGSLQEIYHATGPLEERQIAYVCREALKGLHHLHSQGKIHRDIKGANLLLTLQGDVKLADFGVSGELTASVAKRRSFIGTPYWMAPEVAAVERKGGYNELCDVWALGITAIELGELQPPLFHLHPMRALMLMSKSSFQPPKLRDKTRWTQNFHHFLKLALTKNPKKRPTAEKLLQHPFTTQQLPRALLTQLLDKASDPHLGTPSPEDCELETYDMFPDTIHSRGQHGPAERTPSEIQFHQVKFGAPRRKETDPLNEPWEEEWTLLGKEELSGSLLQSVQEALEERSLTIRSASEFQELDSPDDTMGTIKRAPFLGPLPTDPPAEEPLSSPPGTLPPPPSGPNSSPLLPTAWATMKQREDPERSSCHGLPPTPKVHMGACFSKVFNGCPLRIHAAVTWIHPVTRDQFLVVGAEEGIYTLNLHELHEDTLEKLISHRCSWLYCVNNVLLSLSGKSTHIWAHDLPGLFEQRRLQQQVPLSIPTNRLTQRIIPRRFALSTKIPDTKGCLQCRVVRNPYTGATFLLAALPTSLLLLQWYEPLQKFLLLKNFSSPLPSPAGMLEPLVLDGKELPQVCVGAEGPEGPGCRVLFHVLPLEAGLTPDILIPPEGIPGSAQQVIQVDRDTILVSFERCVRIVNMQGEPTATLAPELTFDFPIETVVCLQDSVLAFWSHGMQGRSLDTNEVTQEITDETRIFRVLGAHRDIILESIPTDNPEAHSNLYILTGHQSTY
Compound,Large Scale Kinome Screen (>290 mammalian kinases),activity at 20 µM (cKit(V654A)) [%],activity at 20 µM (PIP4K2α) [%],activity at 20 µM (EphA5) [%],activity at 20 µM (JAK2) [%],activity at 20 µM (MKK4(m)) [%],activity at 20 µM (Hck activated) [%],activity at 20 µM (ALK4) [%],activity at 20 µM (NEK6) [%],activity at 20 µM (ROCK-II(r)) [%],activity at 20 µM (PKCζ) [%],activity at 20 µM (Snk) [%],activity at 20 µM (Itk) [%],activity at 20 µM (Txk) [%],activity at 20 µM (NEK7) [%],activity at 20 µM (MAPKAP-K3) [%],activity at 20 µM (CK1γ1) [%],activity at 20 µM (EphB4) [%],activity at 20 µM (CK2) [%],activity at 20 µM (ErbB4) [%],other results
"CN(C)c1cc(-c2ccncc2)c(-c2ccc3ccccc3c2)nn1 [MW108, N, N-dimethyl-6-(naphthalen-2-yl)-5-(pyridin-4-yl)pyridazin-3-amine]",only p38αMAPK as a potential target,106,96,100,98,108,97,95,103,97,103,98,90,98,108,102,101,54,106,52,"Large Scale Kinome Screen (>290 mammalian kinases; listed as MW01-11-108SRM): negative except for p38αMAPK; activity at 20 µM (BrSK1): 94%; activity at 20 µM (SRPK1): 114%; activity at 20 µM (PI3 Kinase (p110β/p85α)): 100%; activity at 20 µM (MRCKα): 107%; activity at 20 µM (IGF-1R): 137%; activity at 20 µM (Pim-3): 105%; cued learning [1]: No difference was detected between groups; contextual fear memory deficit [1]: ameliorated the contextual fear memory deficit; activity at 20 µM (Axl): 106%; activity at 20 µM (Flt3): 108%; activity at 20 µM (NEK2): 96%; pIC50 (EphA7): 4.72; activity at 20 µM (EphA7): 35%; Chemical Stability (37ºC; 24 hrs) (Chemical stability; 24 h, 0.0015 M): stable in neutral, base (pH 13), acid (pH 2); activity at 20 µM [2]: 99%; activity at 20 µM (Src(1-530)): 101%; activity at 20 µM (MST1): 105%; activity at 20 µM (GCK): 101%; activity at 20 µM (TAO3): 73%"
"CN(C)c1cc(-c2ccncc2)c(-c2cccc3ccccc23)nn1 [MW181, N,N-dimethyl-6-(naphthalen-1-yl)-5-(pyridin-4-yl)pyridazin-3-amine]","p38αMAPK, p38βMAPK, and the atypical p38 kinase NLK as primary targets",83,97,101,111,91,106,101,92,92,98,99,91,98,102,99,101,100,104,78,"Large Scale Kinome Screen (>290 mammalian kinases; listed as MW01-10-181SRM): negative except for the following MAPKs; activity at 20 µM (BrSK1; [3]): 94%; activity at 20 µM (SRPK1; [3]): 103%; activity at 20 µM (PI3 Kinase (p110β/p85α)): 98%; activity at 20 µM (MRCKα): 103%; activity at 20 µM (IGF-1R): 121%; activity at 20 µM (Pim-3): 106%; cued learning [1]: No difference was detected between groups; contextual fear memory deficit [1]: ameliorated the contextual fear memory deficit; activity at 20 µM (Axl): 99%; activity at 20 µM (Flt3): 93%; activity at 20 µM (NEK2): 94%; activity at 20 µM (EphA7): 77%; Chemical Stability (37ºC; 24 hrs) (Chemical stability; neutral, base (pH 13), acid (pH 2)): stable in neutral, base (pH 13), acid (pH 2); activity at 20 µM [2]: 99%; activity at 20 µM (Src(1-530)): 98%; activity at 20 µM (MST1): 94%; activity at 20 µM (GCK): 101%; activity at 20 µM (TAO3): 88%"
